Experimental data published in patent US4939138A, “2- and 3-aminomethyl-6-arylcarbonyl-2,3-dihydropyrrolo(1,2,3-DE)-1,4-benzoxazin es” (Sterling Drug Inc., priority 1989, dated 1990).

Key:
[1] = system: acetylcholine-induced abdominal constriction; test: acetylcholine-induced abdominal constriction test (ACH); format: in vivo, mice; details: for ED50: Mus musculus
Text: (§1) The test procedures used to determine the analgesic activities of the compounds have been described in detail in the prior art and are as follows: The acetylcholine-induced abdominal constriction test, which is a primary analgesic screening test designed to measure the ability of a test agent to suppress acetylcholine-induced abdominal constriction in mice, described by Collier et al., Brit. J. Pharmacol. Chemotherap. 32, 295 (1968); a modification of the anti-bradykinin test, which is also a primary analgesic screening procedure, described by Berkowitz et al., J. Pharmacol. Exptl Therap. 177, 500-508 (1971), Blane et al., J. Pharm. Pharmacol 19, 367-373 (1967), Botha et al., Eur. J. Pharmacol. 6, 312-321 (1969) and Deffenu et al., J. Pharm. Pharmacol. 18, 135 (1966); the rat paw flexion test, described by Kuzuna et al., Chem. Pharm. Bull., 23, 1184-1191 (1975), Winter et al., J. Pharm. Exptl. Therap., 211, 678-685 (1979) and Capetola et al., J. Pharm. Exptl. Therap. 214, 16-23 (1980); and the mouse vas deferens adrenergic transmission test, described by Henderson et al., Brit. J. Pharmacol., 46, 764-766 (1972).
(§2) In the acetylcholine-induced abdominal constriction test, the test compounds were administered either as suspensions in gum tragacanth (GT) or as aqueous solutions prepared by addition of just sufficient dilute aqueous methanesulfonic acid (MS) or dilute aqueous lactic acid (LA) to dissolve the compound The compounds are identified by the example number above where their preparations are described All data in the anti-bradykinin, rat writhing and Randall-Selitto tests were obtained on oral administration.

[2] = system: brewers' yeast-induced hyperalgesia; test: modification of the Randall-Selitto analgesic (paw pressure) test (R-S); format: in vivo, rat (Sprague-Dawley); details: Rattus norvegicus; oral; read-out: R-S minimum effective dose, MED
Method: (§3) In order to further detail the analgesic profiles of the compounds of the invention, their activities in the inhibition of acetic acid-induced writhing assay in the rat, the inhibition of cyclooxygenase assay and a modification of the Randall-Selitto analgesic test were also determined The test procedure used to determine the inhibition of acetic acid-inducedwrithing in the rat is described as follows.
The modification of the Randall-Selitto analgesic test procedure used is described as follows:
Female Sprague-Dawley rats, weighing 60 to 95 grams, were routinely used. […] The rats were housed 10 per cage with food and water available ad libitum.
The Randall-Selitto Test device used was a UGO Basile Analgesy Meter (catalog no. 7200), with the flat-topped plinth on the bottom, acting as a platform upon which the hind paw of the rat was placed and the round-pointed pusher oriented downward. […]
Animals were given the test drug, p.o., two hours after the sub-plantar injection, four doses customarily being given, along with vehicle control and a positive control (Zomepirac). […] Treatments were assigned in such a way that both the range and the means of the baseline readings were as nearly equal as possible for all treatments. […]
Results were analyzed with the Student's t-test. […]

[3] = system: cyclooxygenase; test: inhibition of cyclooxygenase assay (CO); format: biochemical, mice; details: 30 μM; negative values = increases over controls, not demonstrated to differ significantly
Method: as §3
The test procedure used to determine cyclooxygenase inhibitory activity is described as follows.
Male mice were decapitated and stomach and brain (cerebral cortex, hypothalamus and medulla) were rapidly dissected over ice. The brains were homogenized in 3 volumes of ice cold 0.1 M potassium phosphate buffer, pH 7.4 containing 10 mM EDTA and 1% BSA (w/v). The homogenate was centrifuged at 10,000 xg for 15 minutes. The resulting supernatant was decanted and centrifuged at 100,000 xg for 60 minutes yielding a crude microsomal pellet. The pellet was washed superficially three times in 3 volumes of 0.1 M potassium phosphate buffer before final resuspension in 1.5 volumes of 0.1 M potassium phosphate buffer containing 1 mM norepinephrine and 1 mM reduced glutathione. The microsomes (50 μl) were preincubated with 50 μl of indomethacin (0.3 μM), test compound or norepinephrine/glutathione-containing buffer for 5 minutes at room temperature. The enzyme reaction was initiated by the addition of 50 μl of ^14 C arachidonic acid to yield a final concentration of 10 μM. After a further incubation of 15 minutes at 37° C., the reaction was stopped by the addition of 50 μl of 4M formic acid. Blank values were determined by using microsomes boiled for 5 minutes but otherwise were treated similarly. The ^14 C-labelled material was extracted 3 times with 0.5 ml of ethyl acetate with intermediate centrifugations at 500 xg for 5 minutes to clarify the aqueous and organic phases. This procedure extracted >95% of the ^14 C-labelled materials. The ethyl acetate washes were added to tubes containing 5 μg each of PGE2, PGF2, PGD2, and 10 μg PGI2 in 25 μl of ethanol. The mixture was evaporated to dryness under nitrogen and the residue dissolved in 150 μl of chloroform:methanol (2:1). This solution was spotted on 5×20 cm silica gel plates and chromatographed with an ethyl acetate, trimethylpentane, acetic acid and water mixture (110:50:20:100 by volume) prepared by shaking the solvents and separating and discarding the organic phase. The prostaglandins were visualized in iodine vapor, the various spots were scraped, and the ^14 C-labelled prostaglandins quantitated by liquid scintillation spectroscopy in 10 ml of BIOFLUOR® or FLUORODYNE®.
as §2

[4] = system: bradykinin; test: anti-bradykinin test (BDK/BRKD); format: in vivo; details: oral
Text: as §1, with “(1972). […]” for “(1972).”

[5] = system: acetic acid-induced writhing; test: inhibition of acetic acid-induced writhing in the rat (RW); format: in vivo, rat (male Sprague Dawley); details: Rattus norvegicus; oral
Method: as §3
Male Sprague Dawley rats (Taconic Farms) weighing between 160 and 200g were treated in a random and blind fashion with 1% gum tragacanth vehicle or test agent suspended or dissolved in 1% gum tragacanth. Rats were individually housed in plastic cages (28×18×12 cm) throughout the experiment. Forty-five minutes after drug treatment, 0.5 ml of 9% (w/v) acetic acid was administered intraperitoneally, and animals were returned to their cages for 10 minutes. Writhing is not normally seen during this 10 minute period. Each animal was then observed for a writhing response during a subsequent 10 minute interval (55-65 minutes post-drug treatment). A writhing response was defined as arching of the back with extension of the hindlimbs and contraction of abdominal muscles. […] Data were expressed as percent inhibition of the mean number of writhes in the vehicle treated control group. Data were evaluated for statistical significance by Dunnett's test, and ED50 's for inhibition of acetic acid-induced writhing were determined by the graded dose-response analysis of Tallarida and Murray, Manual of Pharmacologic Calculations with Computer Programs, Springer Verlag, New York (1981).
as §2

Cc1c(C(=O)c2cccc3ccccc23)c2cccc3c2n1C(CN1CCOCC1)CO3 (centres unmarked) [Example 1B, 3-(4-morpholinylmethyl)-5-methyl-6-(1-naphthylcarbonyl)-2,3-dihydropyrrolo1,2,3-de]-1,4-benzoxazine methanesulfonate]
ED50 ([1]; iv): 0.25 mg/kg | ED50 ([1]; po, aqueous methanesulfonic acid (MS)): 33 mg/kg | ACH percent inhibition ([1]; p.o., dose level 100, suspension in gum tragacanth (GT)): 30% | ACH percent inhibition ([1]; s.c., dose level 100): 73% | minimal effective dose [2]: 0.003 mg/kg | CO percent inhibition (% I) [3]: -35% | ED50 [4]: 35 mg/kg | ED50 [5]: 8.6 mg/kg
